The values that follow are results of earlier work, collected in PMC11320730, “5-Methoxy-2-aminoindane Reverses Diet-Induced Obesity and Improves Metabolic Parameters in Mice: A Potential New Class of Antiobesity Therapeutics” (ACS Pharmacology & Translational Science, 2024).

Molecules are shown by their SMILES.

Series [1] has as its system rats fed a cafeteria diet. Also noted: method as in PMID 35664477. Particulars: cited from earlier work.
Series [2] has as its system lean mice, DIO mice, ob/ob mice and melanocortin-receptor 4 knockout mice. Also noted: method as in PMID 35953488. The conditions noted are these: ob/ob and melanocortin-receptor 4 knockout mice; cited from earlier work.
For series [3], the system named is adult female participants with anorexia nervosa. The conditions noted are these: single 25 mg dose with psychological support, 10 adult female participants; cited from earlier work.

For the molecule `CN(C)CCc1c[nH]c2cccc(OP(=O)(O)O)c12` [psilocybin], the weight loss result in series [1] (at the given doses) is listed as “no effect”. For the same molecule, the weight gain result in series [1] is reported as “reduced”. Further, in series [2], the body weight result was “no impact” and the food intake result is given as “no impact”. Besides, in series [3], the “safety and tolerability (adverse events)” value was “no clinically significant adverse events observed”.
